Data reported in patent US11919908B2, “Substituted pyrrolo[2,3-d]pyrimidine compounds as JAK2 V617F inhibitors” (Incyte Corporation, priority 2020, dated 2024).

Tests used:
[1] = target: T1, pseudo-kinase domain (JH2) of human V617F mutant JAK2 (Homo sapiens, UniProt O60674, F794H/V617F/W659A/W777A); test: JAK2 LanthaScreen JH2-V617F Binding Assay; details: 50 nM Fluorescent JAK2-JH2 Tracer, 1 hour at 25° C.
T1 construct: pseudo-kinase domain (JH2, amino-acids 536-812 with 3 surface mutations W659A, W777A, F794H); His (C); purchased BPS Bioscience 79498; host or cells: baculovirus expression system
T1 sequence (O60674 536-812 V617F/W659A/W777A/F794H): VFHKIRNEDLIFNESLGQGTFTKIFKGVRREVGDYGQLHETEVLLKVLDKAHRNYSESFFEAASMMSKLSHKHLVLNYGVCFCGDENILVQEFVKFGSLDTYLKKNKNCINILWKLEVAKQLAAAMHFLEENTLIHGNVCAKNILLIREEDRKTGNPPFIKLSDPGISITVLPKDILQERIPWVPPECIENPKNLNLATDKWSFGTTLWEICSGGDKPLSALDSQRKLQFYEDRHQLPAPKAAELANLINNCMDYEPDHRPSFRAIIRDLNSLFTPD
Description: (§1) Example C. JAK2 LanthaScreen JH2-V617F Binding Assay JAK2 JH2-V617F binding assay utilizes pseudo-kinase domain (JH2, amino-acids 536-812 with 3 surface mutations […]) of human V617F mutant JAK2 expressed as C-terminal His-Avi-tagged, biotinylated protein in a baculovirus expression system (BPS Bioscience, Catalog #79498). The assay was conducted in black 384-well polystyrene plates in a final reaction volume of 20 μL. JAK2 JH2-V617F (0.26 nM) was incubated with compounds (100 nL serially diluted in DMSO) in the presence of 50 nM Fluorescent JAK2-JH2 Tracer (MedChem Express Catalog #HY-102055) and 0.25 nM Streptavidin-Tb cryptate (Cisbio Part #610SATLB) in assay buffer (50 mM Tris, pH=7.5, 10 mM MgCl2, 0.01% Brij-35, 0.1% BSA, 1 mM EGTA, 5% Glycerol and 5 mM DTT). Non-specific binding was accessed in the presence of 2 mM ATP. After incubation for 1 hour at 25° C., LanthaScreen signals were read on a PHERAstar FS plate reader (BMG LABTECH). Data was analyzed with IDBS XLfit and GraphPad Prism 5.0 software using a four parameter dose response curve to determine IC50 for each compound.

[2] = target: T2, pseudo-kinase domain (JH2) of human Wild Type JAK2 (Homo sapiens, UniProt O60674, F794H/W659A/W777A); test: JAK2 LanthaScreen JH2-WT Binding Assay; details: 50 nM Fluorescent JAK2-JH2 Tracer, 1 hour at 25° C.
T2 construct: pseudo-kinase domain (JH2, amino-acids 536-812 with 3 surface mutations W659A, W777A, F794H); His (C); purchased BPS Bioscience 79463; host or cells: baculovirus expression system
T2 sequence (O60674 536-812 W659A/W777A/F794H): as the sequence (O60674 536-812 V617F/W659A/W777A/F794H) above, with F82V counted along it
Description: as §1, with “Example B.” for “Example C.”, “LanthaScreen JH2-WT” for “LanthaScreen JH2-V617F”, “JAK2 JH2-WT” for “JAK2 JH2-V617F”, “human Wild Type” for “human V617F mutant”, “Catalog #79463).” for “Catalog #79498).”, “JAK2 JH2-WT (0.145” for “JAK2 JH2-V617F (0.26”

[3] = target: T3, catalytic domain (JH1) of human JAK2 (Homo sapiens, UniProt O60674); test: JAK2 LanthaScreen JH1 Binding Assay; details: 50 nM Fluorescent JAK2-JH1 Tracer, 2 hours at 25° C.
T3 construct: catalytic domain (JH1, amino acids 826-1132) of human JAK2; FLAG (N); purchased Carna Biosciences 08-445-20N; host or cells: baculovirus expression system
T3 sequence (O60674 826-1132): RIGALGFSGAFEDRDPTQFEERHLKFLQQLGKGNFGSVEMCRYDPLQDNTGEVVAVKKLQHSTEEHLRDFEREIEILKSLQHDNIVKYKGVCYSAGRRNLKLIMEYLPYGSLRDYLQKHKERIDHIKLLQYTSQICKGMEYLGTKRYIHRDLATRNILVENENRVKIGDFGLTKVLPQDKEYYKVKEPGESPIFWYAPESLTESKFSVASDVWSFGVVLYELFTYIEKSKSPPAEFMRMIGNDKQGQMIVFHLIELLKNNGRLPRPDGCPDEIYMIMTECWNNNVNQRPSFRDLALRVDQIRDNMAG
Description: Example A. JAK2 LanthaScreen […] Binding Assay JAK2 JH1 binding assay utilizes catalytic domain (JH1, amino acids 826-1132) of human JAK2 expressed as N-terminal FLAG-tagged, biotinylated protein in a baculovirus expression system (Carna Biosciences, Product #08-445-20N). The assay was conducted in black 384-well polystyrene plates in a final reaction volume of 20 μL. JAK2 JH1 (1.5 nM) was incubated with compounds (100 nL serially diluted in DMSO) in the presence of 50 nM Fluorescent JAK2-JH1 Tracer and 0.5 nM Streptavidin-Tb cryptate (Cisbio Part #610SATLB) in assay buffer (50 mM Tris, pH=7.5, 10 mM MgCl2, 0.01% Brij-35, 0.1% BSA, 1 mM EGTA, 5% Glycerol and 5 mM DTT). Non-specific binding was accessed in the presence of 2 mM ATP. After incubation for 2 hours at 25° C., LanthaScreen signals were read on a PHERAstar FS plate reader (BMG LABTECH). Data was analyzed with IDBS XLfit and GraphPad Prism 5.0 software using a four parameter dose response curve to determine IC50 for each compound.

IC50 [1] | IC50 [2] | IC50 [3] | SMILES
> 2500 nM | > 2500 nM | > 2500 nM | CN(C)S(=O)(=O)c1ccc(-c2[nH]c3nc(N)[nH]c(=O)c3c2-c2cnn(Cc3cccnc3)c2)cc1 [Example 29, 4-(2-Amino-4-oxo-5-(1-(pyridin-3-ylmethyl)-1H-pyrazol-4-yl)-4,7-dihydro-3H-pyrrolo[2,3-d]pyrimidin-6-yl)-N,N-dimethylbenzene sulfonamide]
100 to 500 nM | 100 to 500 nM | > 2500 nM | COc1ccccc1-c1c(-c2ccc(S(=O)(=O)N(C)C)cc2)[nH]c2nc(N)[nH]c(=O)c12 [Example 65, 4-(2-Amino-5-(2-methoxyphenyl)-4-oxo-4,7-dihydro-3H-pyrrolo[2,3-d]pyrimidin-6-yl)-N,N-dimethylbenzene-sulfonamide]
> 2500 nM | > 2500 nM | > 2500 nM | CCc1c(-c2ccccc2)[nH]c2nc(N)[nH]c(=O)c12 [Example 55, 2-Amino-5-ethyl-6-phenyl-3,7-dihydro-4H-pyrrolo[2,3-d]pyrimidin-4-one]
> 2500 nM | > 2500 nM | > 2500 nM | CN(C)S(=O)(=O)c1ccc(-c2[nH]c3nc(N)[nH]c(=O)c3c2-c2cccc3c2OC(C)(C)C3)cc1 [Example 71, 4-(2-Amino-5-(2,2-dimethyl-2,3-dihydrobenzofuran-7-yl)-4-oxo-4,7-dihydro-3H-pyrrolo[2,3-d]pyrimidin-6-yl)-N,N-dimethylbenzenesulfonamide]
100 to 500 nM | 100 to 500 nM | 100 to 500 nM | CN(C)S(=O)(=O)c1ccc(-c2[nH]c3nc(N)[nH]c(=O)c3c2-c2ccccc2F)cc1 [Example 64, 4-(2-Amino-5-(2-fluorophenyl)-4-oxo-4,7-dihydro-3H-pyrrolo[2,3-d]pyrimidin-6-yl)-N,N-dimethylbenzene-sulfonamide]
500 to 1000 nM | 500 to 1000 nM | 1000 to 2500 nM | Cc1cccc(-c2c(-c3ccc(S(=O)(=O)N(C)C)cc3)[nH]c3nc(N)[nH]c(=O)c23)c1 [Example 2, 4-(2-Amino-4-oxo-5-(3-tolyl)-4,7-dihydro-3H-pyrrolo[2,3-d]pyrimidin-6-yl)-N,N-dimethylbenzenesulfonamide]
> 2500 nM | > 2500 nM | > 2500 nM | CN(C)S(=O)(=O)c1ccc(-c2[nH]c3nc(N)[nH]c(=O)c3c2-c2ccccc2C#N)cc1 [Example 18, 4-(2-Amino-5-(2-cyano-phenyl)-4-oxo-4,7-dihydro-3H-pyrrolo[2,3-d]pyrimidin-6-yl)-N,N-dimethylbenzene sulfonamide]
1000 to 2500 nM | 500 to 1000 nM | > 2500 nM | CN(C)S(=O)(=O)c1ccc(-c2[nH]c3nc(N)[nH]c(=O)c3c2-c2ccc(C#N)cc2)cc1 [Example 39, 4-(2-Amino-5-(4-cyanophenyl)-4-oxo-4,7-dihydro-3H-pyrrolo[2,3-d]pyrimidin-6-yl)-N,N-dimethylbenzene sulfonamide]

Second part, the compound before the results:

SMILES | IC50 [1] | IC50 [2] | IC50 [3]
COc1cc2ccccc2cc1-c1c(-c2ccc(S(=O)(=O)N(C)C)cc2)[nH]c2nc(N)[nH]c(=O)c12 [Example 33, 4-(2-Amino-5-(3-methoxynaphthalen-2-yl)-4-oxo-4,7-dihydro-3H-pyrrolo[2,3-d]pyrimidin-6-yl)-N,N-dimethylbenzene sulfonamide] | 500 to 1000 nM | 500 to 1000 nM | > 2500 nM
CN(C)S(=O)(=O)c1ccc(-c2[nH]c3nc(N)[nH]c(=O)c3c2-c2ccc(C(F)F)cc2)cc1 [Example 9, 4-(2-Amino-5-(4-(difluoromethyl)phenyl)-4-oxo-4,7-dihydro-3H-pyrrolo [2,3-d]pyrimidin-6-yl)-N,N-dimethylbenzene sulfonamide] | 500 to 1000 nM | 500 to 1000 nM | 1000 to 2500 nM
CN(C)S(=O)(=O)c1ccc(-c2[nH]c3nc(N)[nH]c(=O)c3c2-c2cccc3c2cnn3C)cc1 [Example 16, 4-(2-Amino-5-(1-methyl-1H-indazol-4-yl)-4-oxo-4,7-dihydro-3H-pyrrolo[2,3-d]pyrimidin-6-yl)-N,N-dimethylbenzene sulfonamide] | > 2500 nM | > 2500 nM | > 2500 nM
CN(C)S(=O)(=O)c1ccc(-c2[nH]c3nc(N)[nH]c(=O)c3c2-c2cccc(C#N)c2)cc1 [Example 17, 4-(2-Amino-5-(3-cyanophenyl)-4-oxo-4,7-dihydro-3H-pyrrolo [2,3-d]pyrimidin-6-yl)-N,N-dimethyl-benzene sulfonamide] | 500 to 1000 nM | 500 to 1000 nM | 100 to 500 nM
CN(C)S(=O)(=O)c1ccc(-c2[nH]c3nc(N)[nH]c(=O)c3c2-c2cccc(C(N)=O)c2)cc1 [Example 14, 3-(2-Amino-6-(4-(N,N-dimethylsulfamoyl)phenyl)-4-oxo-4,7-dihydro-3H-pyrrolo [2,3-d]pyrimidin-5-yl)benzamide] | 1000 to 2500 nM | 1000 to 2500 nM | 1000 to 2500 nM
COc1ccc(OC)c(-c2c(-c3ccc(S(=O)(=O)N(C)C)cc3)[nH]c3nc(N)[nH]c(=O)c23)c1 [Example 25, 4-(2-Amino-5-(2,5-dimethoxyphenyl)-4-oxo-4,7-dihydro-3H-pyrrolo[2,3-d]pyrimidin-6-yl)-N,N-dimethylbenzene sulfonamide] | 500 to 1000 nM | 500 to 1000 nM | > 2500 nM
CN(C)S(=O)(=O)c1ccc(-c2[nH]c3nc(N)[nH]c(=O)c3c2-c2cnn(Cc3ccc(C(=O)O)cc3)c2)cc1 [Example 52, 4-((4-(2-amino-6-(4-(N,N-dimethylsulfamoyl)phenyl)-4-oxo-4,7-dihydro-3H-pyrrolo[2,3-d]pyrimidin-5-yl)-1H-pyrazol-1-yl)methyl)benzoic acid] | 100 to 500 nM | 100 to 500 nM | > 2500 nM
CN(C)S(=O)(=O)c1ccc(-c2[nH]c3nc(N)[nH]c(=O)c3c2-c2cnn(C3CCOCC3)c2)cc1 [Example 37, 4-(2-Amino-4-oxo-5-(1-(tetrahydro-2H-pyran-4-yl)-1H-pyrazol-4-yl)-4,7-dihydro-3H-pyrrolo[2,3-d]pyrimidin-6-yl)-N,N-dimethylbenzene sulfonamide] | 1000 to 2500 nM | > 2500 nM | > 2500 nM
CN(C)S(=O)(=O)c1ccc(-c2[nH]c3nc(N)[nH]c(=O)c3c2-c2cccc3c2OCC(=O)N3)cc1 [Example 48, 4-(2-Amino-4-oxo-5-(3-oxo-3,4-dihydro-2H-benzo[b][1,4]oxazin-8-yl)-4,7-dihydro-3H-pyrrolo[2,3-d]pyrimidin-6-yl)-N,N-dimethylbenzenesulfonamide] | 100 to 500 nM | 100 to 500 nM | > 2500 nM
Cc1cccc(-c2c(-c3ccc(C(=O)N(C)C)cc3)[nH]c3nc(N)[nH]c(=O)c23)c1 [Example 60, 4-(2-Amino-4-oxo-5-(3-tolyl)-4,7-dihydro-3H-pyrrolo[2,3-d]pyrimidin-6-yl)-N,N-dimethylbenzamide] | 500 to 1000 nM | 500 to 1000 nM | > 2500 nM
